Patent US5840729A (priority 1995, dated 1998)
pKi: −log10 of the molar value. Where two headings read alike, the source gives them in different places. Blank lines part the entries; values can stand above or below the compound they belong to.

Columns and labels:
rats = assay: Water maze learning (scopolamine-induced impairment); type: in vivo, rat; conditions: for effect on scopolamine-induced learning impairment: water maze, summary statement; for reversal of scopolamine-induced impairment: scopolamine 1.2 mg/kg
Description: In the water maze spatial learning model, rats are required to use distal spatial cues around a circular water tank to navigate to a hidden platform.
Rats were trained in a 120 -cm diameter water-filled tank to locate a hidden platform submerged just below the surface of the water. The location of the platform remained constant, but for each trial, the animal was required to swim from one of three different starting locations around the edge of the tank. There were no proximal cues in the tank, so the animal had to use a spatial mapping strategy using the distal cues around the room to navigate to the hidden platform. A computerized video tracking system allowed automated acquisition of the data. The animals were given 12 successive training trials during the single training day, using the methods of O. Buresova, et al., Differential Effects Of Cholinergic Blockade On Performance Of Rats In The Water Tank Navigation Task And In A Radial Water Maze, Behavioral Neuroscience, 100, 476-482 (1986). […] After the animal found or was placed on the platform, it was allowed to stay there for 30 seconds. The next trial commenced immediately following the 30 second stay on the platform. Latency to locate the platform was recorded for each trial.
Separate treatment groups of five animals each were run in each experiment. The VEH--VEH groups received vehicle (distilled water plus Tween) i.p. 40 minutes prior to the first trial and vehicle i.p. 20 min. prior to the first trial. The VEH-SCOP groups received vehicle i.p. at 40 minutes and scopolamine HBr i.p. at 20 minutes. The MDL-SCOP groups received (R)-1,3-dipropyl-8-(1-phenylpropyl)-xanthine or 3,7-dihydro-8[(R)-1-methyl-2-phenylethyl]1,3-dipropyl-1H-purine-2,6-dione i.p. at 40 minutes and scopolamine HBr i.p. at 20 minutes.
The latency scores for each animal were averaged into four blocks of three trials each (one trial from each starting location). A one-way ANOVA comparing the treatment groups was computed on the scores for each trial block. If the overall ANOVA was statistically significant, comparisons between individual treatment groups were made with Fisher's PLSD test.

hippocampal CA1 neurons = assay: Hippocampal long-term potentiation, in vitro slice (CA1 population spike); type: cell-based, male Sprague-Dawley rats; conditions: for LTP stabilized level following tetanus / time course of LTP following tetanus: primed burst tetanus; for population spike before and after induction of LTP: hippocampal CA1 neurons
Method: Slices were prepared from male Sprague-Dawley rats. […] Briefly, the hippocampus was rapidly and gently dissected over ice. 400 μ Sections were made with a […] tissue chopper and incubated on the interface of 34° C. […] A recording electrode was placed in the CA1 region of the hippocampus and a stimulating electrode was positioned in the stratum radiatum of the CA3 region of this same slice. […] The signal form the CA1 cell body layer was amplified, filtered (1 Hz-4 KHz), and monitored on an oscilloscope. The evoked waveform was also digitized using a Computerscope A/D board (RC Electronics, Inc., Santa Barbara, Calif.) and stored for analysis using Neuroscope software (Levin and Associates, Denver, Colo.) running on an IBM-AT. In order to insure the viability of the slice, "minimal viability criteria" were established. […] Only preparations that met these three criteria were used. Twenty or more control population spikes were obtained to establish a baseline (at least 10 minutes). In most slices concentrated drug solutions were then diluted into the media for a 20 minute period to establish effects on the baseline population spike. […] One 100 μsec pulse was followed by 4 similar pulses 170, 180, 190, 200 msec later. Drug superfusion was continuous throughout the experiment. […] The compounds were dissolved in DMSO and diluted 1:400 into the perfusion media. […] Each pop spike waveform was digitized, stored, and analyzed by the Neuroscope software. Pop spike amplitude was determined for each waveform and these amplitudes were normalized to pre-tetanus levels. Results were expressed as percent change from this control level and plotted vs. time.

A1 receptor = A1 receptor mediated decrease in heart rate produced by adenosine in the anesthetized guinea pig; type: in vivo
[1] = test system: Type III phosphodiesterase; assay: Type III phosphodiesterase activity; type: biochemical
[2] = test system: isolated guinea pig trachea; assay: Isolated guinea pig trachea, contraction produced by N6-cyclohexyl-adenosine; type: cell-based
[3] = test system: Type IV phosphodiesterase; assay: Type IV phosphodiesterase activity; type: biochemical
adenosine A2 receptor = biological target: T1, adenosine A2 receptor (Rattus norvegicus, UniProt P30543); assay: A2 receptor affinity: displacement of [3H]NECA binding in rat brain striatum membranes; conditions: Table 1
T1 construct: tissue Charles River (animals); host or cells: striatal membranes of young male rats (C-D strain)
T1 sequence (P30543 whole entry): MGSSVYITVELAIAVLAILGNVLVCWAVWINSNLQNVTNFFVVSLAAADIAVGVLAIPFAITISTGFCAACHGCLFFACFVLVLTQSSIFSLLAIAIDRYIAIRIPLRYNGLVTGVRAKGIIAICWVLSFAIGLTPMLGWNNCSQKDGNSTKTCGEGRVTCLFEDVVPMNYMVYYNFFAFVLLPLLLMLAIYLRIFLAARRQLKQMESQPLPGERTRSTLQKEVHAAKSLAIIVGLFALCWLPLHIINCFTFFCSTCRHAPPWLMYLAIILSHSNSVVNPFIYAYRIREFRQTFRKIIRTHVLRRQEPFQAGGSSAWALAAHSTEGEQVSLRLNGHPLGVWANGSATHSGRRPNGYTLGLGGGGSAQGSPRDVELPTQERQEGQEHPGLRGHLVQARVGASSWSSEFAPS
Method: See R. R. Bruns, et al., Characterization of the A-2Adenosine Receptor Labeled by [3H]NECA in Rat Striatal Membranes, Mol. Pharmacol., 29, 331-346 (1986). Young male rats (C-D strain), obtained from Charles River, were killed by decapitation and the brain was removed. Membranes for ligand binding were isolated from rat brain striatum. The tissue was homogenized in 20 vol ice-cold 50 mM Tris-HC1 buffer (pH 7.7) using a polytron (setting for 6 to 20 seconds). The homogenate was centrifuged at 50,000×g for 10 minutes at 4° C. The pellet was again homogenized in a polytron in 20 vol of buffer, and centrifuged as before. The pellet was finally resuspended in 40 vol of 50 mM Tris-HC1 (pH 7.7) per gram of original wet weight of tissue.
Incubations were carried out at 25° C. for 60 minutes. Each tube was filtered through GF/B glass fiber filters using a vacuum. The filters were rinsed two times with 5 ml of the ice-cold buffer. […] The filters were counted by liquid scintillation spectrometry.
Specific binding of [^3 H]NECA was measured as the excess over blanks run in the presence of 100 μM 2-chloroadenosine. Total membrane-bound radioactivity was about 2.5% of that added to the test tubes. […] Specific binding to membranes was about 50% of the total bound.

adenosine A1 receptor [4] = biological target: T2, adenosine A1 receptor (Rattus norvegicus, UniProt P25099); parameters: Male Sprague-Dawley rats were sacrificed by decapitation and the membranes were isolated from whole animal brains; from tissue; host or cells: whole brain membranes of male Sprague-Dawley rats; conditions: Dudley et al., 1992; Secrest et al.; cited from earlier work
T2 sequence (P25099 1-326): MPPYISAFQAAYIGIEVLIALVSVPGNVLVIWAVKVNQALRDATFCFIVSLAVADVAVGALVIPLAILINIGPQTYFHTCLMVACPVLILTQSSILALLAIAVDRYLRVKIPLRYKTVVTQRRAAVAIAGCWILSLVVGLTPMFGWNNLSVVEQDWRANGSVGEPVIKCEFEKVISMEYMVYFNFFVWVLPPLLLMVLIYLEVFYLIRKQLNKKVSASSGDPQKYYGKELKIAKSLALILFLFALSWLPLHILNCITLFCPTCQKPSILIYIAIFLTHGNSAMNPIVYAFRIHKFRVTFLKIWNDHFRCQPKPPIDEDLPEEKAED

adenosine A1 receptor [5] = biological target: T2, adenosine A1 receptor
adenosine A1 receptor [6] = biological target: T2, adenosine A1 receptor; assay: A1 receptor affinity: displacement of [3H]cyclohexyladenosine binding in rat brain membranes; conditions: Table 1; ratio of A2 Ki to A1 Ki (selectivity)
[7] = test system: animal models of learning and memory; conditions: G. Schingnitz et al. 1991; cited from earlier work
adenosine A1 receptor [8] = biological target: T2, adenosine A1 receptor; assay: biochemical

SMILES: CCCn1c(=O)c2[nH]c([C@H](CC)c3ccccc3)nc2n(CCC)c1=O [3,7-dihydro-8-[(R)-1-phenylpropyl]1,3-dipropyl-1H-purine-2,6-dione]
- difference from VEH-SCOP group (latency), block 3 (rats; 5 mg/kg i.p. plus scopolamine 1.2 mg/kg, p<0.05): differed from the VEH-SCOP group on block 3 (p<0.05)
- reversal of scopolamine-induced impairment (rats; 5 mg/kg i.p.): reversed the scopolamine-induced impairment
- difference from VEH-SCOP group (latency), blocks 2 and 3 (rats; 25 mg/kg i.p. plus scopolamine 1.2 mg/kg): differed from the VEH-SCOP group on blocks 2 and 3
- reversal of scopolamine-induced impairment (rats; 25 mg/kg i.p.): reversed the scopolamine-induced impairment
- difference from VEH-VEH group (latency) (rats; 5 and 25 mg/kg i.p. plus scopolamine 1.2 mg/kg): did not differ significantly from the VEH--VEH group
- effect on scopolamine-induced learning impairment (rats): significantly antagonized
- synaptic transmission in the hippocampal slice (hippocampal CA1 neurons): enhanced synaptic transmission
- LTP stabilized level following tetanus (hippocampal CA1 neurons; 2.5 μm): 270%
- population spike before and after induction of LTP (hippocampal CA1 neurons): increased the basal population spike before and after induction of LTP
- time course of LTP following tetanus (hippocampal CA1 neurons): rose sharply and remained stable throughout the observation period
- A1 antagonist potency and selectivity (adenosine A1 receptor [4]): potent and selective A1 antagonists
- pKi (adenosine A2 receptor): 5.45
- pKi (adenosine A1 receptor [5]): 7.63
- A2/A1 (adenosine A1 receptor [6]): 153

SMILES: CCCn1c(=O)c2[nH]c(C3CCC(=O)C3)nc2n(CCC)c1=O (racemic) [KFM-19, reference compound]
- effect on scopolamine-induced learning impairment (rats): significantly antagonized
- synaptic transmission in the hippocampal slice (hippocampal CA1 neurons): enhanced synaptic transmission
- activity in other animal models of learning and memory [7]: reported to have activity

SMILES: CCCn1c(=O)c2[nH]c(C(CC)c3ccccc3)nc2n(CCC)c1=O (racemic) [3,7-dihydro-8-[(±)-phenylpropyl]-1,3-dipropyl-1H-purine-2,6-dione]
- A2/A1 (adenosine A1 receptor [5]): 20

SMILES: CCCn1c(=O)c2[nH]c([C@@H](CC)c3ccccc3)nc2n(CCC)c1=O [3,7-Dihydro-8-[(S)-1-phenylpropyl]1,3-dipropyl-1H-purine-2,6-dione]
- pKi (adenosine A2 receptor): 6.07
- A2/A1 (adenosine A1 receptor [5]): 14
- pKi (adenosine A1 receptor [8]): 7.22

SMILES: CN1[C@@H]2C[C@@H](OC(=O)[C@H](CO)c3ccccc3)C[C@H]1[C@@H]1O[C@@H]12 [scopolamine, reference compound]
- VEH-SCOP group versus VEH-VEH group (latency) (rats; scopolamine 1.2 mg/kg i.p., p<0.05): differed significantly from the VEH--VEH group (p<0.05)
- impairment of acquisition of the water maze task (rats; scopolamine, dose-dependent): dose-dependently impairs acquisition of the water maze task

Second part, led by results:

- effect on Type III phosphodiesterase activity [1]: little effect
- effect on Type IV phosphodiesterase activity [3]: little effect
SMILES: CCCn1c(=O)c2[nH]c([C@H](C)Cc3ccccc3)nc2n(CCC)c1=O [3,7-Dihydro-8-[(R)-1-methyl-2-phenylethyl]-1,3-dipropyl-1H-purine-2,6-dione]
- difference from VEH-VEH group (latency) (rats; 25 mg/kg i.p. plus scopolamine […]): did not differ significantly from the VEH--VEH group
- reversal of scopolamine-induced impairment of water maze learning (rats; 25 mg/kg i.p., scopolamine […]): partially reversed
- effect on scopolamine-induced learning impairment (rats): significantly antagonized
- synaptic transmission in the hippocampal slice (hippocampal CA1 neurons): enhanced synaptic transmission
- LTP stabilized level following tetanus (hippocampal CA1 neurons; 5 μM): 216%
- population spike before and after induction of LTP (hippocampal CA1 neurons): increased the basal population spike before and after induction of LTP
- time course of LTP following tetanus (hippocampal CA1 neurons): rose sharply and remained stable throughout the observation period
- reversal of A1 receptor mediated decrease in heart rate produced by adenosine (A1 receptor): completely reversed
- effect on contraction produced by N6-cyclohexyl-adenosine [2]: very little effect

- pKi (adenosine A2 receptor): 4.89
SMILES: CCCn1c(=O)c2nc(C(CO)Cc3ccccc3)[nH]c2n(CCC)c1=O (racemic) [3,7-dihydro-8-[l-(hydroxymethyl)-2-phenylethyl]-1,3-dipropyl-1H-purine-2,6-dione]

- pKi (adenosine A2 receptor): 5.37
SMILES: CCCn1c(=O)c2nc([C@H](C)c3ccccc3)[nH]c2n(CCC)c1=O [3,7-Dihydro-8-[(R)-1-phenylethyl]-1,3-dipropyl-1H-purine-2,6-dione]

- pKi (adenosine A2 receptor): 5.31
SMILES: CCCn1c(=O)c2nc(C(C)c3ccccc3)[nH]c2n(CCC)c1=O (racemic) [3,7-dihydro-8-(1-phenylethyl)-1,3-dipropyl-1H-purine-2,6-dione]

- pKi (adenosine A2 receptor): 5.91
SMILES: CCCn1c(=O)c2nc(C(CC)Cc3ccccc3)[nH]c2n(CCC)c1=O (racemic) [3,7-dihydro-8-[1-(phenylmethyl)propyl]-1,3-dipropyl-1H-purine-2,6-dione]

- pKi (adenosine A2 receptor): 5.08
SMILES: CCCn1c(=O)c2[nH]c(C3Cc4ccccc4C3)nc2n(CCC)c1=O (racemic) [3,7-Dihydro-8-(2-indanyl)-1,3-dipropyl-1H-purine-2,6-dione]

- pKi (adenosine A2 receptor): 4.89
SMILES: CCCn1c(=O)c2nc([C@@H](C)c3ccccc3)[nH]c2n(CCC)c1=O [3,7-Dihydro-8-[(S)-1-phenylethyl]-1,3-dipropyl-1H-purine-2,6-dione]
